A short description of data set [1]: in vitro. The following applies: human, plasma.
Data set [2] is described as follows: in vitro. The following applies: human.
Data set [3] can be described thus: in vitro. To be noted: hepatocytes.
A short description of another data set: physchem. The following applies: octan-1-ol/water.

Where only a bound is given, the exact number is not on record here.

By fraction unbound is commonly meant free concentration divided by total concentration. A low value points to extensive binding. In general, microsomal CLint refers to the rate of metabolic loss divided by the concentration. For orientation: hepatocyte CLint means the capacity of the preparation to metabolise the compound, expressed as a volume cleared per time. Low values mean greater metabolic stability, high ones faster metabolism. In “in vitro [1]” (PPB), `CN(C)c1nc(NC[C@H]2CC[C@H](CNS(=O)(=O)c3ccc(Br)cc3OC(F)(F)F)CC2)nc2ccccc12` gave a fraction unbound at 5 h of 0.0005. Moreover, the microsomal CLint in “in vitro [2]” (microsomes) came to 117 µL/min/mg. In “in vitro [3]”, this compound had a hepatocyte CLint of 50.1 µL/min/1e6 cells.

As usually defined, the logD is the decadic logarithm of the distribution of all forms, ionised or not, between an organic phase and buffer at a given pH. Low values mean a more hydrophilic compound, high ones a more lipophilic compound. Turning to `O=C(Nc1ccncc1)c1cccc2ccccc12`, in the data set “physchem” (pH 7.4), the logD came to 3.1. The same compound showed a fraction unbound at 5 h in “in vitro [1]” of 0.069. Also, the microsomal CLint in “in vitro [2]” (liver microsomes) was 60.3 µL/min/mg. The hepatocyte CLint in the data set “in vitro [3]” stood at 25.1 µL/min/1e6 cells.

In the data set “physchem” (pH 7.4, LogD7.4), `CCN(CC)CCNc1ncnc2c1sc1nc(N3CCOCC3)c3c(c12)CCCC3` registered a logD of 3.3. This compound gave a fraction unbound at 5 h in the data set “in vitro [1]” (PPB) of 0.0784. Besides, the microsomal CLint in “in vitro [2]” (liver microsomes) was found to be 9.55 µL/min/mg. Moreover, in the data set “in vitro [3]”, the hepatocyte CLint stood at 26.3 µL/min/1e6 cells.

As to `Cc1cc(CCCOc2c(Cl)cc(C3=NCCO3)cc2Cl)on1`, the logD in “physchem” (pH 7.4, LogD7.4) was found to be 3.72. This compound had a fraction unbound at 5 h in the data set “in vitro [1]” (PPB) of 0.0034. Further, in “in vitro [2]” (microsomes), the microsomal CLint worked out at 66.1 µL/min/mg. Also, the hepatocyte CLint in “in vitro [3]” is greater than 150 µL/min/1e6 cells.

For the compound `O=C(C1CCN(c2nnc(-n3cccc3)s2)CC1)N1CCN(Cc2ccc3c(c2)OCO3)CC1`, in the data set “physchem” (pH 7.4, LogD7.4), the logD was found to be 2.5. This compound also showed a fraction unbound at 5 h in the data set “in vitro [1]” (PPB) of 0.0447. In addition, the microsomal CLint in “in vitro [2]” (liver microsomes) is greater than 150 µL/min/mg. Besides, the hepatocyte CLint in “in vitro [3]” came to 50.1 µL/min/1e6 cells.

In “physchem” (pH 7.4, LogD7.4), `Cc1cc(C)cc(-c2nnc(SCC(=O)N3CCN(C(=O)c4ccco4)CC3)o2)c1` showed a logD of 3. This compound also showed a fraction unbound at 5 h in “in vitro [1]” (PPB) of 0.0321. The compound also showed a microsomal CLint in the data set “in vitro [2]” (microsomes) of 67.6 µL/min/mg. Besides, the hepatocyte CLint in the data set “in vitro [3]” turned out to be 89.1 µL/min/1e6 cells.

With `Cc1cc(C)nc(SCC(N)=O)n1`, the logD in “physchem” (pH 7.4, LogD7.4) amounted to 0.23. The compound further gave a fraction unbound at 5 h in the data set “in vitro [1]” (PPB) of 0.788. Further, the microsomal CLint in the data set “in vitro [2]” (liver microsomes) was less than 3 µL/min/mg. Further, the hepatocyte CLint in the data set “in vitro [3]” is less than 3 µL/min/1e6 cells.

Turning to `COc1cnc(-c2ccccn2)nc1N(C)c1ccccc1`, the logD in the data set “physchem” (pH 7.4, LogD7.4) turned out to be 2.79. In “in vitro [1]” (PPB), this compound showed a fraction unbound at 5 h of 0.04. This compound also registered a microsomal CLint in “in vitro [2]” (liver microsomes) of 104 µL/min/mg. The same compound gave a hepatocyte CLint in “in vitro [3]” greater than 150 µL/min/1e6 cells.

For the compound `COc1ccccc1C(=O)Nc1ccc(Cc2ccncc2)cc1`, the fraction unbound at 5 h in the data set “in vitro [1]” (PPB) is 0.0024. For the same compound, the microsomal CLint in the data set “in vitro [2]” (microsomes) came out at 7 µL/min/mg. Further, the hepatocyte CLint in the data set “in vitro [3]” was 103 µL/min/1e6 cells.

With `O=C(Nc1ccccc1Cl)c1cc[nH]n1`, the logD in “physchem” (pH 7.4, LogD7.4) is 2.58. The compound further gave a fraction unbound at 5 h in “in vitro [1]” (PPB) of 0.0661. The compound also showed a microsomal CLint in the data set “in vitro [2]” (microsomes) of 138 µL/min/mg. Further, in the data set “in vitro [3]”, the hepatocyte CLint is greater than 150 µL/min/1e6 cells.

In turn, `Nc1nc2ccc(-c3ccncc3)cc2s1` had a fraction unbound at 5 h in “in vitro [1]” (PPB) of 0.119. Besides, the microsomal CLint in “in vitro [2]” (liver microsomes) was 20.4 µL/min/mg. Besides, the hepatocyte CLint in the data set “in vitro [3]” came to 29.5 µL/min/1e6 cells.

In the data set “physchem” (pH 7.4, LogD7.4), `Cc1ccc(S(=O)(=O)N2N=Cc3ccccc3B2O)cc1` came in with a logD of 0.05. Further, the fraction unbound at 5 h in “in vitro [1]” (PPB) was 0.0836. The same compound showed a microsomal CLint in “in vitro [2]” (liver microsomes) of 14.1 µL/min/mg. The hepatocyte CLint in the data set “in vitro [3]” came to 6.17 µL/min/1e6 cells.

In the case of `O=C1Nc2ccccc2B(O)N1c1ccccc1`, the logD in “physchem” (pH 7.4) is 1.4. The fraction unbound at 5 h in “in vitro [1]” was 0.179. The compound also yielded a microsomal CLint in the data set “in vitro [2]” (microsomes) of 5.13 µL/min/mg. Moreover, in the data set “in vitro [3]”, the hepatocyte CLint turned out to be 7.94 µL/min/1e6 cells.

`CCCS(=O)(=O)N1N=Cc2cc(Cl)ccc2B1O` yielded a logD in “physchem” (pH 7.4, LogD7.4) of -0.4. This compound had a fraction unbound at 5 h in the data set “in vitro [1]” (PPB) of 0.17. For the same compound, the microsomal CLint in “in vitro [2]” (liver microsomes) was found to be 9.77 µL/min/mg. In the data set “in vitro [3]”, this compound registered a hepatocyte CLint of less than 3 µL/min/1e6 cells.

Compound `CN[C@@H](C)C(=O)N[C@H](C(=O)N1CC[C@H]2CCN(CCc3ccccc3)C[C@H]21)C1CCCCC1` showed a logD in the data set “physchem” (pH 7.4, LogD7.4) of 2.47. The fraction unbound at 5 h in “in vitro [1]” (PPB) is 0.0568. Moreover, in the data set “in vitro [2]” (liver microsomes), the microsomal CLint came to 21.4 µL/min/mg. Also, in “in vitro [3]”, the hepatocyte CLint was determined as 10.5 µL/min/1e6 cells.

In turn, `COc1ccc(-c2nc3c(NCCCN(C)C(=O)C4CCC4)c(Br)cnc3[nH]2)cc1` showed a fraction unbound at 5 h in “in vitro [1]” (PPB) of 0.0022. Besides, in “in vitro [2]” (liver microsomes), the microsomal CLint is greater than 150 µL/min/mg. Moreover, in “in vitro [3]”, the hepatocyte CLint was 138 µL/min/1e6 cells.

Regarding `O=C(O)CCc1ccc(OCc2cc(Cl)ccc2-c2ccccc2)cc1`, the logD in “physchem” (pH 7.4, LogD7.4) came to 3.22. In “in vitro [1]” (PPB), this compound showed a fraction unbound at 5 h of 0.002. The same compound gave a microsomal CLint in the data set “in vitro [2]” (microsomes) of less than 3 µL/min/mg. In addition, the hepatocyte CLint in “in vitro [3]” turned out to be 13.8 µL/min/1e6 cells.

For the compound `Nc1ncnc2c1c(COc1cccc(Cl)c1)nn2C1CCOCC1`, in the data set “physchem” (pH 7.4, LogD7.4), the logD amounted to 3.17. The compound further had a fraction unbound at 5 h in the data set “in vitro [1]” (PPB) of 0.0477. Besides, the microsomal CLint in the data set “in vitro [2]” (microsomes) amounted to 46.8 µL/min/mg. The hepatocyte CLint in the data set “in vitro [3]” is greater than 150 µL/min/1e6 cells.

As to `O=C(Nc1nc2ccccc2n1CCCO)c1cccc([N+](=O)[O-])c1`, in the data set “physchem” (pH 7.4, LogD7.4), the logD is 3. This compound had a fraction unbound at 5 h in the data set “in vitro [1]” (PPB) of 0.0801. Besides, the microsomal CLint in the data set “in vitro [2]” (microsomes) was 112 µL/min/mg. The compound also yielded a hepatocyte CLint in “in vitro [3]” of 85.1 µL/min/1e6 cells.

`CCc1nc2ccc(C(=O)NCc3ccc4c(c3)OCO4)cn2c1N(C)Cc1cccs1` had a fraction unbound at 5 h in “in vitro [1]” (PPB) of 0.0035. Also, the microsomal CLint in the data set “in vitro [2]” (liver microsomes) is greater than 150 µL/min/mg. Moreover, the hepatocyte CLint in the data set “in vitro [3]” is greater than 150 µL/min/1e6 cells.

`O=C(O)Cc1ccc(N2CCC(CN3CCC(Oc4ccc(Cl)c(Cl)c4)CC3)CC2)cc1`: the fraction unbound at 5 h in the data set “in vitro [1]” (PPB) was 0.02. This compound also gave a microsomal CLint in the data set “in vitro [2]” (microsomes) of less than 3 µL/min/mg. Also, the hepatocyte CLint in the data set “in vitro [3]” turned out to be 9 µL/min/1e6 cells.

The values are drawn from ChEMBL document CHEMBL3301361, “Experimental in vitro DMPK and physicochemical data on a set of publicly disclosed compounds”.
